Source: paper PMC7417771, “Thiol-ene Enabled Chemical Synthesis of Truncated S-Lipidated Teixobactin Analogs” (Frontiers in Chemistry, 2020)
In brackets after ≈: the same amount, converted by molar mass. Where two headings read alike, the source gives them in different places. Positions of bridges follow the written chain, without caps; N, C: chain ends. Non-standard residues stand in square brackets, D forms with d. Residues, ends and D or L forms follow the SMILES beside them. *: point of attachment. Ethyl(2-palmitoyloxy) = CCCCCCCCCCCCCCCC(=O)OCC*; Ethyl(2-butanoyloxy) = CCCC(=O)OCC*; Ethyl(2-OBz) = O=C(OCC*)c1ccccc1; Lauroyl = CCCCCCCCCCCC(=O)*; X1 = CCCCCCCCCCCC(=O)OCC*; X3 = CCCCCCCC(=O)OCC*; X2 = CCCCCC(=O)OCC*; Mpa = O=C(O)CCS

Experiments:
[1] = system: Staphylococcus aureus ATCC 29213; assay type: cell-based
Description: (§1) Microwave irradiated reactions were performed in a CEM (Matthews, NC) Discover SP, Model 908010 reactor. Dibenzofulvene measurements for the Fmoc release assay was performed in a Shimadzu (Kyoto, Japan) UV-1280 spectrophotometer at 290 nm. Analytical RP-HPLC was used to analyse final compounds and performed on a Dionex (Sunnyvale, CA) UltiMate 3000 system using a Waters (Milford, MA) Xterra MS C18 (5 μm 4.6 × 150 mm) column, and Chromeleon software was used for data processing. Buffer A: 0.1% (v/v) TFA in H2O; buffer B: 0.1% (v/v) TFA in MeCN. LC-MS was performed on an Agilent (Santa Clara, CA) 1260 Infinity with UV absorbance at λ = 214 nm equipped with an Agilent 6120 Quadrupole LC-MS using an Agilent Zorbax 300SB-C3 column (3.5 μm, 3.0 × 150 mm) column with a linear gradient of 5 – 95% B (ca. 3% B/min) at r.t., with a flow rate of 0.3 mL/min. Data processing was carried out by Agilent OpenLAB software. Buffer A: 0.1% (v/v) formic acid in H2O; buffer B: 0.1% (v/v) formic acid in MeCN. Crude peptides were purified on Dionex UltiMate 3000 preparative HPLC using Agilent Zorbax 300SB-C18 column (5 μm, 9.4 × 250 mm) and Chromeleon software was used for data processing. Ultraviolet irradiation was carried out using Spectroline (Westbury, NY) hand-held lamp EA-160/FA, 6W integrally filtered tube at 50 Hz, 0.17 A and λ = 365 nm. Biological assays were carried out inside a Thermo Fisher (Waltham, MA) HERAsafe KSP 12 biological safety cabinet on 96-well plates obtained from MediRay (Auckland, New Zealand). Mueller Hinton (MH) broth and Staphylococcus aureus ATCC 29213 was obtained from Thermo Fisher. Media and bacteria were incubated in N-Biotek (Geyonggi, South Korea) NB205L shaker.
Staphylococcus aureus ATCC 29213 was grown in non-cation adjusted Mueller Hinton (MH) broth at 37 °C with shaking (200 rpm). […] Overnight cultures of bacteria were diluted in fresh MH before adding 50 µL of inoculum to each well of the MIC plate, to achieve a final volume of 100 µL with a uniform CFU/ml of ~5 x10^5 in each well. Plates were incubated at 37 °C with shaking for 24 h before determining the MIC.

[2] = system: Gram-positive bacterial species; conditions: range over species, ref Yang H. et al., 2016, cited from earlier work
Description: Despite this substitution, the L-Arg^10-teixobactin analog maintained excellent, albeit reduced potency, with MIC values ranging 1–4 μg/mL across a number of Gram-positive bacterial species (Yang H. et al., [2016]; Zong et al., [2018]). The rationale for this substitution being that the positive charge from the guanidinium group was the moiety responsible for eliciting antibacterial activity.

[3] = system: S. epidermidis ATCC 14990; conditions: cited from earlier work; for MIC (S. epidermidis): Figure 1, ref Yang H. et al. (2016), Girt et al. (2018), Zong et al. (2018)
Description: Figure 1 Structures of teixobactin 1 and teixobactin analogs; Arg^10-teixobactin 2, lipobactin 3, and Lys^10-farnesylbactin 4. Examples of most relevant MICs from the literature are shown above each structure. Yang H. et al. ([2016]), Girt et al. ([2018]), Zong et al. ([2018]) The End^10, Arg^10 and Lys^10 substitutions (red) and the lipid moieties of lipobactin 3 and farnesylbactin 4 (blue) are highlighted. […] Lipobactin 3 was prepared using Fmoc-SPPS as described by the Nowick group (Yang H. et al., [2016]) and purified to 95% (Yang H. et al., [2016]). […] Despite the distinct similarity to lipobactin 3, in which hydrophobic residues 1–5 of teixobactin are also replaced with ...

[4] = Analytical RP-HPLC retention time as measure of hydrophobicity; assay type: physicochemical; conditions: for RP-HPLC column retention time tR: chromatographic, analytical RP-HPLC, Waters Xterra MS C18 5 μm 4.6 × 150 mm, buffer A 0.1% TFA in H2O, buffer B 0.1% TFA in MeCN, used as measure of hydrophobicity; for Δt, retention time difference to lipobactin 3: tR of the compound minus tR of 3, same RP-HPLC C18 system; for Hydrophobicity relative to lipobactin 3 as judged by RP-HPLC retention time: in words
Description: We evaluated the antibiotic activity of the analogs 8a–8f against S. aureus using lipobactin 3 as a reference compound. Lipobactin 3 was prepared using Fmoc-SPPS as described by the Nowick group (Yang H. et al., [2016]) and purified to 95% (Yang H. et al., [2016]). […] To examine the reasons for the lack of bioactivity, the hydrophobicity of the S-lipidated teixobactin analogs as a function of lipid tail length were examined by analyses of their RP-HPLC retention times and compared to that of lipobactin 3 (Table 1).
as §1

[5] = system: methicillin-resistant Staphylococcus aureus (MRSA); conditions: cited from earlier work
Source text: Nature has historically been the primary source of medicinally important antibiotics (Moloney, [2016]). By screening soil microorganisms, Ling et al. discovered the novel antimicrobial peptide (AMP) teixobactin (1, Figure 1), isolated from bacterium Eleftheria terrae (Ling et al., [2015]). […] Crucially, resistance in S. aureus was not induced by exposure to sub-lethal doses of teixobactin. The lack of resistance wa ... || Figure 1 Structures of teixobactin 1 and teixobactin analogs; Arg^10-teixobactin 2, lipobactin 3, and Lys^10-farnesylbactin 4. Examples of most relevant MICs from the literature are shown above each structure. Yang H. et al. ([2016]), Girt et al. ([2018]), Zong et al. ([2018]) The End^10, Arg^10 and Lys^10 substitutions (red) and the lipid moieties of lipobactin 3 and farnesylbactin 4 (blue) are highlighted.

[6] = Figure 1, ref Yang H. et al. (2016), Girt et al. (2018), Zong et al. (2018)

Molecule	MIC, S. aureus ATCC 29213 ([1]; ATCC 29213, 24 h)	RP-HPLC column retention time tR [4]	Δt, retention time difference to lipobactin 3 [4]	Hydrophobicity relative to lipobactin 3 as judged by RP-HPLC retention time [4]	further results
CCCCCCCCCCCC(=O)N[C@H](C(=O)N[C@@H](CO)C(=O)N[C@H]1C(=O)N[C@@H](C)C(=O)N[C@@H](CCCNC(=N)N)C(=O)N[C@@H]([C@@H](C)CC)C(=O)O[C@H]1C)[C@@H](C)CC [Compound 3, lipobactin, reference compound] (Lauroyl-IS[dT]ARI; ester 3-C)	8 µM (≈ 6.59 µg/mL)	20.38 min	0 min	–	MIC, S. aureus ATCC 29213, converted to mass concentration ([1]; ATCC 29213, 24 h): ca. 6.5 μg/mL; MIC across a range of Gram-positive bacterial species [2]: 4 to 8 µg/mL; MIC (S. epidermidis) [3]: 4 µg/mL (≈ 4.85 µM); MIC against S. epidermidis ATCC 14990 ([3]; reported MIC, ref Yang H. et al., 2016): 4 µg/mL (≈ 4.85 µM)
CCCC(=O)OCCSCCC(=O)N[C@H](C(=O)N[C@@H](CO)C(=O)N[C@H]1C(=O)N[C@@H](C)C(=O)N[C@@H](CCCNC(=N)N)C(=O)N[C@@H]([C@@H](C)CC)C(=O)O[C@H]1C)[C@@H](C)CC [Compound 8a] ([Mpa](Ethyl(2-butanoyloxy))IS[dT]ARI; ester 4-C)	> 128 µM	14.98 min	-5.4 min	more hydrophilic than 3	–
CCCCCC(=O)OCCSCCC(=O)N[C@H](C(=O)N[C@@H](CO)C(=O)N[C@H]1C(=O)N[C@@H](C)C(=O)N[C@@H](CCCNC(=N)N)C(=O)N[C@@H]([C@@H](C)CC)C(=O)O[C@H]1C)[C@@H](C)CC [Compound 8b] ([Mpa](X2)IS[dT]ARI; ester 4-C)	> 128 µM	16.88 min	-3.5 min	more hydrophilic than 3	–
CCCCCCCC(=O)OCCSCCC(=O)N[C@H](C(=O)N[C@@H](CO)C(=O)N[C@H]1C(=O)N[C@@H](C)C(=O)N[C@@H](CCCNC(=N)N)C(=O)N[C@@H]([C@@H](C)CC)C(=O)O[C@H]1C)[C@@H](C)CC [Compound 8c] ([Mpa](X3)IS[dT]ARI; ester 4-C)	> 128 µM	18.89 min	-1.5 min	–	–
CCCCCCCCCCCC(=O)OCCSCCC(=O)N[C@H](C(=O)N[C@@H](CO)C(=O)N[C@H]1C(=O)N[C@@H](C)C(=O)N[C@@H](CCCNC(=N)N)C(=O)N[C@@H]([C@@H](C)CC)C(=O)O[C@H]1C)[C@@H](C)CC [Compound 8d] ([Mpa](X1)IS[dT]ARI; ester 4-C)	> 128 µM	23.21 min	+2.8 min	more hydrophobic than 3	–
CCCCCCCCCCCCCCCC(=O)OCCSCCC(=O)N[C@H](C(=O)N[C@@H](CO)C(=O)N[C@H]1C(=O)N[C@@H](C)C(=O)N[C@@H](CCCNC(=N)N)C(=O)N[C@@H]([C@@H](C)CC)C(=O)O[C@H]1C)[C@@H](C)CC [Compound 8e] ([Mpa](Ethyl(2-palmitoyloxy))IS[dT]ARI; ester 4-C)	> 128 µM	27.98 min	+7.6 min	more hydrophobic than 3	–
CC[C@H](C)[C@H](NC(=O)CCSCCOC(=O)c1ccccc1)C(=O)N[C@@H](CO)C(=O)N[C@H]1C(=O)N[C@@H](C)C(=O)N[C@@H](CCCNC(=N)N)C(=O)N[C@@H]([C@@H](C)CC)C(=O)O[C@H]1C [Compound 8f] ([Mpa](Ethyl(2-OBz))IS[dT]ARI; ester 4-C)	–	15.93 min	-4.5 min	–	MIC, S. aureus ATCC 29213 ([1]; non-cation adjusted Mueller Hinton broth, two-fold dilution 128 to 0.0625 µM, ~5 x10^5 CFU/ml, 37 °C with shaking, 24 h, lowest concentration at which growth did not occur): > 128 µM
L-Arg^10-teixobactin [Compound 2]	–	–	–	–	MIC (MRSA) [5, 6]: 2 µg/mL; MIC values across a number of Gram-positive bacterial species ([2]; Zong et al., 2018): 1 to 4 µg/mL; MIC across a range of Gram-positive bacterial species [2]: 1 to 4 µg/mL; MIC (S. epidermidis) [3]: 1 µg/mL
teixobactin [Compound 1]	–	–	–	–	MIC (MRSA) [5, 6]: 0.25 µg/mL; MIC (MRSA) ([5]; ref Ling et al., 2015): 0.25 µg/mL
